Laboratory results as given in PubChem BioAssay (NCI).
“And” between values parts separate entries of the source, which are not always exact repeats. Identical values can stand only once.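 The compound was tested at five concentrations on cells cultured in 96-well plates, with a 48-hour exposure period. The concentration for 50% growth inhibition is given as GI50. Definition used: TGI = concentration required for complete inhibition of growth.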

What was measured:
Assay in all cases: DTP human tumour cell line panel, 48 h
[1] = system: SK-OV-3 ovarian
[2] = system: A498 renal
[3] = system: CAKI-1 renal
[4] = system: SF-268 CNS
[5] = system: UACC-257 melanoma
[6] = system: EKVX NSCLC
[7] = system: HOP-92 NSCLC
[8] = system: NCI-H23 lung
[9] = system: U251 CNS
[10] = system: SR leukemia

Row | SMILES | TGI [1] | TGI [2] | TGI [3] | TGI [4] | TGI [5] | TGI [6] | TGI [7] | TGI [8] | TGI [9] | TGI [10] | GI50 [1] | GI50 [2] | GI50 [10] | GI50 [3] | GI50 [4] | GI50 [5] | GI50 [6] | GI50 [8] | GI50 [9] | GI50 [7]
1 | Cc1ccc(S(=O)(=O)N/N=C(\c2nc3ccc([N+](=O)[O-])cc3[nH]c2=O)C(O)c2ccc([N+](=O)[O-])cc2)cc1 (configuration not stated) | > 100 µM | > 100 µM | > 100 µM | > 100 µM | > 100 µM | > 100 µM | > 100 µM | > 100 µM | > 100 µM |  |  |  |  |  |  |  |  |  |  | 
2 | Cc1ccccc1NC(=O)/C=N/O | > 100 µM | > 100 µM | > 100 µM | > 100 µM | > 100 µM | 39.6 µM |  | > 100 µM | > 100 µM | > 100 µM |  |  |  |  |  |  |  |  |  | 
3 | CC(C)(C)OP(=O)(OC(C)(C)C)C(O)c1ccc(/C=C(\C#N)C(N)=O)cc1 (configuration not stated) | > 100 µM | > 100 µM | > 100 µM | > 100 µM | > 100 µM | > 100 µM | > 100 µM | > 100 µM | > 100 µM |  |  |  |  |  |  |  |  |  |  | 
4 | Cn1c(=O)nc2n(-c3ccc(Cl)cc3)c(-c3ccccc3)c(-c3ccccc3)nc-2c1=O | > 100 µM | > 100 µM | > 100 µM | > 100 µM | 66.9 µM | > 100 µM | 84.5 µM | > 100 µM | > 100 µM |  |  |  |  |  |  |  |  |  |  | 
5 | Nc1ccc(-c2cc(C(=O)Nc3nccs3)[nH]c(=S)n2)cc1 | > 100 µM | > 100 µM | > 100 µM | > 100 µM | > 100 µM | > 100 µM | > 100 µM | > 100 µM | > 100 µM |  |  |  |  |  |  |  |  |  |  | 
6 | O=C1CC(c2c(-c3ccccc3)[nH]c3ccccc23)C(=O)N1c1ccccc1 (configuration not stated) | > 100 µM | > 100 µM | > 100 µM |  | > 100 µM | > 100 µM |  | > 100 µM | > 100 µM |  |  |  |  |  |  |  |  |  |  | 
7 | O=C1N2Cc3c4ccc5c3CN3C(=O)N6Cc7c(ccc(c7CN1C6(c1ccccc1)C23c1ccccc1)OCCOCCOc1cc(Br)c(Br)cc1OCCOCCO4)OCCOCCOc1cc(Br)c(Br)cc1OCCOCCO5 (configuration not stated) | > 100 µM |  | > 100 µM | > 100 µM | > 100 µM | > 100 µM | 90 µM | > 100 µM | > 100 µM | > 100 µM |  |  |  |  |  |  |  |  |  | 
8 | Cc1cc(-c2nnc(/C=C/c3ccc4c(c3)OCO4)o2)n[nH]1 | > 50 µM | 40.7 µM | > 50 µM | > 50 µM | > 50 µM | > 50 µM |  | > 50 µM | > 50 µM | 48.3 µM | 21.1 µM | 7.54 µM | 2.39 µM | 3.89 µM | 6.5 µM | 23 µM | 17.9 µM | 11.9 µM | 13.6 µM | 
9 | C/C(=N\NC(=O)C[N+](C)(C)C)c1sc(-c2cccnc2)nc1C | > 100 µM |  |  | > 100 µM | > 100 µM | > 100 µM | > 100 µM | > 100 µM | > 100 µM |  |  |  |  |  |  |  |  |  |  | 
10 | S=c1o[nH]c(-c2ccccc2)c1C=Nc1ccccc1 | > 100 µM | > 100 µM | > 100 µM | > 100 µM | > 100 µM | > 100 µM |  | > 100 µM | > 100 µM |  |  |  |  |  |  |  |  |  |  | 
11 | CCC1C(C)C=NN1c1nc(N)nc(C(C#N)=Nc2ccc(N(C)C)cc2)n1 (configuration not stated) | 17.8 µM |  | 20.8 µM | 23.2 µM | > 50 µM | 32.2 µM | > 50 µM | > 50 µM | 16.8 µM | > 50 µM | 9.32 µM |  | 9.56 µM | 9.06 µM | 10.6 µM | > 50 µM | 11.3 µM | 13.8 µM | 8.93 µM | 12.1 µM
12 | CCO/S(=N/S(=O)(=O)c1ccccc1)c1ccccc1[N+](=O)[O-] (configuration not stated) | > 100 µM |  | > 100 µM | > 100 µM | > 100 µM | > 100 µM |  | > 100 µM | > 100 µM | > 100 µM |  |  |  |  |  |  |  |  |  | 
13 | CC1(C)CCCC2(C)C3C(O)CC2(C)C(O)C31 (configuration not stated) | > 100 µM | > 100 µM |  | > 100 µM | > 100 µM | > 100 µM |  | > 100 µM | > 100 µM |  |  |  |  |  |  |  |  |  |  | 
14 | O=c1[nH]c2cc([N+](=O)[O-])ccc2nc1/C(=N/Nc1ccccc1)C(O)c1ccco1 (configuration not stated) |  | > 100 µM | > 100 µM | > 100 µM | > 100 µM | > 100 µM |  |  | > 100 µM | > 100 µM |  |  |  |  |  |  |  |  |  | 
15 | Cc1cc(C(=O)/C=C/c2ccc[nH]2)ccc1-n1ccc(C(F)(F)F)n1 | > 100 µM |  | 28.7 µM | > 100 µM | > 100 µM | > 100 µM | > 100 µM | > 100 µM | > 100 µM | 80.1 µM | 46.8 µM |  | 3.72 µM | 3.04 µM | 3.37 µM | 21.9 µM | 6.15 µM | 14.9 µM | 3.5 µM | 11.4 µM
16 | Cc1ccc(S(=O)(=O)NC(=O)NCCc2ccccc2)cc1 | > 100 µM | > 100 µM | > 100 µM | > 100 µM | 88.2 µM | > 100 µM | > 100 µM | > 100 µM | > 100 µM |  |  |  |  |  |  |  |  |  |  | 
17 | Cc1c(Cl)c(=O)oc2cc(OC/C=C3\CCC(=O)O3)ccc12 | > 100 µM | 75.3 µM | 30.2 µM | 64.3 µM | 99 µM | > 100 µM | 30 µM | 32.7 µM | 33.3 µM |  | 58 µM | 21.1 µM |  | 11.6 µM | 18.8 µM | 27.2 µM | 29.9 µM | 17.4 µM | 16.8 µM | 13 µM
18 | C[N+](C)(C)CC1CCC(C[N+](C)(C)C)C1=O (configuration not stated) | 42 µM | 21.9 µM | 1.55 µM | 21.2 µM | 9.05 µM | 17.5 µM | 2.28 µM | 8.27 µM | 17.1 µM |  |  |  |  |  | 7.26 µM |  | 4.43 µM |  |  | 
19 | CC1=CC(C)(c2c[nH]c3ccccc23)CC(C)(C)c2c1[nH]c1ccccc21 (configuration not stated) | 61.8 µM | 37.8 µM |  | > 100 µM | 41.2 µM | 39.8 µM |  | 28.5 µM | 32 µM | 32 µM |  |  |  |  |  |  |  |  |  | 
20 | CCCOc1cc2ccccc2cc1C(=O)Nc1nc(NC)c2c(ccc3nccc32)[nH]1 | 1.78 µM | 1.75 µM | 3.82 µM | 2.05 µM | 2.56 µM | 2.04 µM | 2.51 µM | 2.53 µM | 1.74 µM |  | 0.473 µM | 0.359 µM |  | 1.76 µM | 0.559 µM | 1.21 µM | 0.611 µM | 1.1 µM | 0.521 µM | 1.15 µM
21 | COc1cc(Cl)cc(-c2nn(-c3cccc(NC(=O)Nc4cccc(C(F)(F)F)c4)c3)cc2-c2ccncc2)c1 | 58.4 µM | 25.6 µM | 8.9 µM | 17.1 µM | 4.65 µM |  |  | 6.69 µM | 2.91 µM | 4.39 µM | 3.61 µM | 2.25 µM | 1.14 µM | 1.29 µM | 2.56 µM | 1.75 µM |  | 1.76 µM | 0.879 µM | 
22 | CC(C)(C)OC(=O)NCCCCn1c2c(c3ccccc3c1=O)C(=O)c1ccccc1-2 | > 100 µM | 65.3 µM | 37.2 µM | > 100 µM | 71.1 µM | > 100 µM |  | 43.4 µM | 37.6 µM | 42.4 µM | 50.2 µM | 23.4 µM | 3.59 µM | 10.7 µM | 20.9 µM | 29.7 µM | 61.5 µM | 20.8 µM | 15.9 µM | 
23 | CCOC(=O)C(=O)Nc1cc(Cl)c(Cl)cc1Cl | > 100 µM |  | > 100 µM | > 100 µM | > 100 µM | > 100 µM | > 100 µM | > 100 µM | > 100 µM |  |  |  |  |  |  |  |  |  |  | 
24 | C[C@H]1C/C=C/[C@H]2[C@@H]3O[C@]3(C)[C@@H](C)[C@H]3[C@H](Cc4ccccc4)NC(=O)[C@]32OC(=O)O/C=C/[C@@](C)(O)C1=O |  | 0.0665 µM and 0.527 µM | 0.0428 µM |  | 29.9 µM and 24.1 µM and 49.8 µM |  | 0.0591 µM and 0.0877 µM |  | 1.14 µM and 4.02 µM and 0.424 µM |  | 0.025 µM | 0.0126 µM |  |  | 0.0125 µM and 0.025 µM | 0.127 µM and 0.0594 µM | 0.065 µM and 0.121 µM | 0.17 µM and 0.13 µM | 0.025 µM | 
25 | CCOC(=O)C1C=C2O[C@@H]3OC4(CCCCC4)O[C@@H]3C2C2C(=O)CCC(=O)[C@@]12C(=O)OC (some centres not stated) | > 100 µM | > 100 µM | > 100 µM | > 100 µM | > 100 µM | > 100 µM | > 100 µM | > 100 µM | > 100 µM |  |  |  |  |  |  |  |  |  |  | 
26 | CC(=O)Oc1ccc2c(c1)[C@@]1(C)CCCC(C)(C)[C@@H]1CC2 |  |  | > 100 µM | 47.9 µM | 43.6 µM | 62.1 µM | 41.9 µM | 37.6 µM | 35 µM | > 100 µM |  |  | > 100 µM | 28 µM | 20.9 µM | 18.2 µM | 26 µM | 19.8 µM | 19.9 µM | 21.7 µM
27 | O=[P+](O)c1ccccn1 | > 100 µM | > 100 µM | > 100 µM | > 100 µM | > 100 µM | > 100 µM | > 100 µM | > 100 µM | > 100 µM |  |  |  |  |  |  |  |  |  |  | 
28 | Cc1cccc(C)c1NC(=O)CCC/C(CC(=O)c1ccc(F)cc1)=N\NC(=O)C(=O)NN | > 100 µM | > 100 µM | > 100 µM | > 100 µM | > 100 µM | > 100 µM |  | > 100 µM | > 100 µM |  |  |  |  |  |  |  |  |  |  | 
